Test results: patent US20230301968A1 (ZEPHAPHARM LTD, priority 2020, published 2023)

What was measured:
CYP2B6 = molecular target: T1, CYP2B6 (Homo sapiens, UniProt P20813); assay: Cytochrome P450 reaction phenotyping, recombinant CYP2B6; type: in vitro ADME
T1 construct: purchased
T1 sequence (P20813 1-491): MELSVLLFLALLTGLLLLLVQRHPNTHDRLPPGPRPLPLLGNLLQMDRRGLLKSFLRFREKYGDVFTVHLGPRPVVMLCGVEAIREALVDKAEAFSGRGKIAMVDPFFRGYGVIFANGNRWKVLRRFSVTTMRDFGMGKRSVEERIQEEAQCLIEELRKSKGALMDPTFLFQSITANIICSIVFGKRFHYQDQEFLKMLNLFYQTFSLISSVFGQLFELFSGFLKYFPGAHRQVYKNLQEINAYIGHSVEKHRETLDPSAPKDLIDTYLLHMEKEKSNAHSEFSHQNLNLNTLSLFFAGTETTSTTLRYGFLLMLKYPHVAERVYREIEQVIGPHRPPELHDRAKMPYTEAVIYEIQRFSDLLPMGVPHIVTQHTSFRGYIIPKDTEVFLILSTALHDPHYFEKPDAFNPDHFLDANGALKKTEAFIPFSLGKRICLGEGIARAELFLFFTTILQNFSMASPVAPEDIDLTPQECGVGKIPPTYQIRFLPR
Method: (§1) The amount of test compound remaining at each time point was analysed by LC-MS/MS. Incubations in control recombinant enzymes were also performed to assess non-enzymatic mediated stability.
(§2) Incubations were also performed using control Bactosomes™ (no cytochrome P450 enzymes present) to reveal any non-enzymatic degradation. Control compounds known to be metabolised specifically by each P450 isoform were included. All incubations were performed singularly for each test compound. […] The reactions were stopped by transferring an aliquot of incubate to quench solvent at the appropriate time points, in a 1:3 ratio. The termination plates were centrifuged at 3,000 rpm for 20 min at 4° C. to precipitate the protein. Following protein precipitation, the sample supernatants were analysed using LC-MS/MS, along with internal standard (1:1 supernatant to internal standard).
(§3) Following correction for any loss in the incubations with the control Bactosomes™, from a plot of In peak area ratio (compound peak area/internal standard peak area) against time, the gradient of the line was determined. Subsequently, half-life (t½) was calculated using the equations below: […]

CYP2D6 = molecular target: T2, CYP2D6 (Homo sapiens, UniProt P10635); assay: Cytochrome P450 reaction phenotyping, recombinant CYP2D6; type: in vitro ADME
T2 construct: purchased
Method: as §1, §2, §3

CYP3A4 = molecular target: T3, CYP3A4 (Homo sapiens, UniProt P08684); assay: Cytochrome P450 reaction phenotyping, recombinant CYP3A4; type: in vitro ADME
T3 construct: purchased
Method: as §1, §2, §3

CYP2C8 = molecular target: T4, CYP2C8 (Homo sapiens, UniProt P10632); assay: Cytochrome P450 reaction phenotyping, recombinant CYP2C8; type: in vitro ADME; settings: for t½: 1 µM substrate, recombinant CYP2C8, NADPH
T4 construct: purchased
T4 sequence (P10632 1-490): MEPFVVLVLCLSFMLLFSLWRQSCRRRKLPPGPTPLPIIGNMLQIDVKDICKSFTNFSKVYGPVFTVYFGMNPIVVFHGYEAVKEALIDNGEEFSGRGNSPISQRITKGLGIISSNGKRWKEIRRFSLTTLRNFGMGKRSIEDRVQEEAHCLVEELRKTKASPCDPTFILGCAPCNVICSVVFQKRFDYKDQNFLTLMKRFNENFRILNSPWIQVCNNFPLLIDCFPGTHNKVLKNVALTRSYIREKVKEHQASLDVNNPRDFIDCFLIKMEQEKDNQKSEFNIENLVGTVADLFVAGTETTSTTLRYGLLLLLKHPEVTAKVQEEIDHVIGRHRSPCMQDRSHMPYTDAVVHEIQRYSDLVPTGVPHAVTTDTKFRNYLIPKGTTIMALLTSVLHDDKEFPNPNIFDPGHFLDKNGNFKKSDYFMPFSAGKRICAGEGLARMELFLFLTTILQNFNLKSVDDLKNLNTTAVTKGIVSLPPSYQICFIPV
Method: as §1, §2, §3

CYP2C9 = CYP2C9 (Homo sapiens, UniProt P11712); assay: Cytochrome P450 reaction phenotyping, recombinant CYP2C9; settings: for t½: 1 µM substrate, recombinant CYP2C9, NADPH
Method: as §1, §2, §3

CYP1A2 = assay: Stability in human cryopreserved hepatocytes with or without CYP1A2 inhibitors (assays 1 to 3); settings: human, hepatocytes; for half-life at 1 µM: t½
Method: (§4) In each assay, the amount of test compound remaining at each time point was analysed by LC-MS/MS.
(§5) The final incubation volume was 500 µL. […] A positive control compound, ethoxycoumarin, for CYP1A2 (as CYP1A2 substrate) was included. […] The reactions were stopped by transferring 50 µL of incubate to 100 µL acetonitrile containing internal standard at the appropriate time points (0, 5, 10, 20, 40 and 60 min). The termination plates were centrifuged at 2500 rpm at 4° C. for 30 min to precipitate the protein.
(§6) From a plot of In peak area ratio (compound peak area/internal standard peak area) against time, the gradient of the line was determined. Subsequently, half-life (t½) and intrinsic clearance (CLint) were calculated using the equations below: […]

[1] = as above; settings: human, hepatocytes; for half-life at 1 µM: t½
Method: as §4, §5, §6

T2 sequence (P10635 whole entry): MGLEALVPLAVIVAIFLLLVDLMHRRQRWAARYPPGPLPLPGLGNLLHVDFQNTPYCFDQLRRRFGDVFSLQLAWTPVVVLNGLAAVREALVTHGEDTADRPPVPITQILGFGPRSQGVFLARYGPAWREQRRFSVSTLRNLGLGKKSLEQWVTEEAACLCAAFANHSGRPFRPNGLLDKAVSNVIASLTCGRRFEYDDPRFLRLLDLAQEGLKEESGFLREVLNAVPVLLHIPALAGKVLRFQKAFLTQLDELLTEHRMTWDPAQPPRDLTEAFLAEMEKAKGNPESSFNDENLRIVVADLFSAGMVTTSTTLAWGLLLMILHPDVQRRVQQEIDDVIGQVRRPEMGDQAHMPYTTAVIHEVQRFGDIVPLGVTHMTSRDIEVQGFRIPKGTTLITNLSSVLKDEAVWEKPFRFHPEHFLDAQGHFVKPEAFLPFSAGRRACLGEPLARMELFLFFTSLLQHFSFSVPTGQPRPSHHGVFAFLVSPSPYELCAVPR
Sequence of CYP2C9 (P11712 whole entry): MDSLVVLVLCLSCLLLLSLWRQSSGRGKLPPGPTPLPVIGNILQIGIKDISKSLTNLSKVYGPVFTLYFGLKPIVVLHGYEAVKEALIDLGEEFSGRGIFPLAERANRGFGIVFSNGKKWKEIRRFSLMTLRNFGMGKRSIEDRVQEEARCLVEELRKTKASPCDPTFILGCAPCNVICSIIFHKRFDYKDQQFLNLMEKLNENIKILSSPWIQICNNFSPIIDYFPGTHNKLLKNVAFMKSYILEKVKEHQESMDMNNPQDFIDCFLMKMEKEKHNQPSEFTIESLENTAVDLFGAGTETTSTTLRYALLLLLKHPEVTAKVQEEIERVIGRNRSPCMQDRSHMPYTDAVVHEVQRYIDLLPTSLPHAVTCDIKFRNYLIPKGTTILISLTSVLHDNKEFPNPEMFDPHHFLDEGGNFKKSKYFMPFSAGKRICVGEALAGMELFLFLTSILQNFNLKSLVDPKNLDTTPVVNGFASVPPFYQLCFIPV
T3 sequence (P08684 whole entry): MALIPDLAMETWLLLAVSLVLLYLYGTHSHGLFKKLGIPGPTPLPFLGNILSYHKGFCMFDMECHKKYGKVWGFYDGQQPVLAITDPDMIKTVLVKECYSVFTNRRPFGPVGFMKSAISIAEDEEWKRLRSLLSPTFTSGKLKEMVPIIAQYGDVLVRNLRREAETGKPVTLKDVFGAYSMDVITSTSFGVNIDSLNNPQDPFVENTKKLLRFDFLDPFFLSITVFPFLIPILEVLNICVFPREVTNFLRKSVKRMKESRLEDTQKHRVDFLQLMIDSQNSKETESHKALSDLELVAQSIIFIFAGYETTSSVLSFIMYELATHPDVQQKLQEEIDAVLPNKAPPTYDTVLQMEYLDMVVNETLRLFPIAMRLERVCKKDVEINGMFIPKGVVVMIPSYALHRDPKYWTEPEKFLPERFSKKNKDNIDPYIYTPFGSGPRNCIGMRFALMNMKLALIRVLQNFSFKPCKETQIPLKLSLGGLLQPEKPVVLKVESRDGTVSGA

In the case of `COC(=O)Nc1nc2cc(C(=O)c3ccc(F)cc3)ccc2[nH]1` [Flubendazole, methyl N-[6-(4-fluorobenzoyl)-1H-benzimidazol-2-yl]carbamate], the “Compound Remaining (% of 0 min)” value (CYP2B6; CYP2B6, 0 min) is reported as 100%, the “Compound Remaining (% of 0 min)” value (CYP2B6; CYP2B6, 5 min) is reported as 96.5% and the “Compound Remaining (% of 0 min)” value (CYP2B6; CYP2B6, 15 min) is reported as 95.8%. For the same compound, the “Compound Remaining (% of 0 min)” value (CYP2B6; CYP2B6, 30 min) was 97.8%, the “Compound Remaining (% of 0 min)” value (CYP2B6; CYP2B6, 45 min) was 104% and the half-life at 1 µM (CYP2B6; human, pH 7.4, 1 µM substrate, recombinant CYP2B6, NADPH, minus value = not metabolised, read-out: t½) was no less than 2.45 h. The t½ (CYP2D6; 1 µM substrate, recombinant CYP2D6, NADPH) was 2.45 h, the “Compound Remaining (% of 0 min)” value (CYP2D6; CYP2D6, 0 min) was 100% and the “Compound Remaining (% of 0 min)” value (CYP2D6; CYP2D6, 5 min) was 93.1%. For the same compound, the “Compound Remaining (% of 0 min)” value (CYP2D6; CYP2D6, 15 min) was 90.0%, the “Compound Remaining (% of 0 min)” value (CYP2D6; CYP2D6, 30 min) was 85.6% and the “Compound Remaining (% of 0 min)” value (CYP2D6; CYP2D6, 45 min) was 78.9%. For the same compound, the half-life at 1 µM (CYP2D6; human, pH 7.4, 1 µM substrate, recombinant CYP2D6, NADPH, read-out: t½) was no less than 2.45 h, the “Compound Remaining (% of 0 min)” value (CYP3A4; CYP3A4, 0 min) was 100% and the “Compound Remaining (% of 0 min)” value (CYP3A4; CYP3A4, 5 min) was 94.6%. The “Compound Remaining (% of 0 min)” value (CYP3A4; CYP3A4, 15 min) was 98.2%, the “Compound Remaining (% of 0 min)” value (CYP3A4; CYP3A4, 30 min) was 100% and the “Compound Remaining (% of 0 min)” value (CYP3A4; CYP3A4, 45 min) was 97.5%. It also gave a half-life at 1 µM (CYP3A4; human, pH 7.4, 1 µM substrate, recombinant CYP3A4, NADPH, minus value = not metabolised, read-out: t½) of no less than 2.45 h, a t½ (CYP2C8) of 11.5 h and a t½ (CYP2C8; listed as flubendazole) of no less than 2.45 h. The “Compound Remaining (% of 0 min)” value (CYP2C8; CYP2C8, 0 min) was 100%, the “Compound Remaining (% of 0 min)” value (CYP2C8; CYP2C8, 5 min) was 100% and the “Compound Remaining (% of 0 min)” value (CYP2C8; CYP2C8, 30 min) was 99.4%. For the same compound, the “Compound Remaining (% of 0 min)” value (CYP2C8; CYP2C8, 45 min) was 95.3%, the t½ (CYP2C9) was 95.33 h and the t½ (CYP2C9; listed as flubendazole) was no less than 2.45 h. The “Compound Remaining (% of 0 min)” value (CYP2C9; CYP2C9, 0 min) was 100%, the “Compound Remaining (% of 0 min)” value (CYP2C9; CYP2C9, 5 min) was 97.4% and the “Compound Remaining (% of 0 min)” value (CYP2C9; CYP2C9, 15 min) was 101%. The “Compound Remaining (% of 0 min)” value (CYP2C9; CYP2C9, 30 min) was 97.9%, the “Compound Remaining (% of 0 min)” value (CYP2C9; CYP2C9, 45 min) was 99.0% and the hepatocyte CLint at 1 µM (CYP1A2; assay 2, fluvoxamine 10 µM) was 3.95 ± 0.941 µL/min/1e6 cells. For the same compound, the hepatocyte CLint at 1 µM (CYP1A2; assay 2, furafylline 1 µM) was 2.05 ± 2.04 µL/min/1e6 cells, the hepatocyte CLint at 1 µM (CYP1A2; assay 2, furafylline 3 µM) was 1.7 ± 0.885 µL/min/1e6 cells and the hepatocyte CLint at 1 µM (CYP1A2; assay 2, thiabendazole 10 µM) was 2.96 ± 1.17 µL/min/1e6 cells. For the same compound, the hepatocyte CLint at 1 µM (CYP1A2; assay 3, cimetidine 10 µM) was 5.43 ± 1.9 µL/min/1e6 cells, the hepatocyte CLint at 1 µM (CYP1A2; assay 3, cimetidine 100 µM) was 10.9 ± 1.27 µL/min/1e6 cells and the hepatocyte CLint at 1 µM (CYP1A2; assay 3, cimetidine 300 µM) was 9.19 ± 1.7 µL/min/1e6 cells. The hepatocyte CLint at 1 µM (CYP1A2; assay 3, mexiletine 10 µM) was 0.861 ± 0.522 µL/min/1e6 cells, the hepatocyte CLint at 1 µM (CYP1A2; assay 3, mexiletine 300 µM) was 5.85 ± 1.25 µL/min/1e6 cells and the half-life at 1 µM (CYP1A2; assay 2, fluvoxamine 10 µM) was 5.85 h. It also gave a half-life at 1 µM (CYP1A2; assay 2, furafylline 1 µM) of 11.3 h, a half-life at 1 µM (CYP1A2; assay 2, furafylline 3 µM) of 13.6 h and a half-life at 1 µM (CYP1A2; assay 2, thiabendazole 10 µM) of 7.8 h. For the same compound, the half-life at 1 µM (CYP1A2; assay 3, cimetidine 10 µM) was 4.25 h, the half-life at 1 µM (CYP1A2; assay 3, cimetidine 100 µM) was 2.13 h and the half-life at 1 µM (CYP1A2; assay 3, cimetidine 300 µM) was 2.52 h. It also gave a half-life at 1 µM (CYP1A2; assay 3, mexiletine 10 µM) of 26.8 h, a half-life at 1 µM (CYP1A2; assay 3, mexiletine 300 µM) of 3.95 h and a hepatocyte CLint at 1 µM ([1]; CLint, assay 2, no inhibitor) of 8.62 ± 2.23 µL/min/1e6 cells. For the same compound, the hepatocyte CLint at 1 µM ([1]; CLint, assay 3, no inhibitor) was 16.7 ± 2.06 µL/min/1e6 cells, the hepatocyte CLint at 1 µM ([1]; intrinsic clearance, assay 1 (pre-screening assay), no inhibitor) was 15.2 ± 1.09 µL/min/1e6 cells and the half-life at 1 µM ([1]; assay 2, no inhibitor) was 2.68 h. For the same compound, the half-life at 1 µM ([1]; assay 3, no inhibitor) was 1.38 h.
